# Source: patent US20240150377A1, “MODULATORS OF CYSTIC FIBROSIS TRANSMEMBRANE CONDUCTANCE REGULATOR” (VERTEX PHARMACEUTICALS INCORPORATED, priority 2020, published 2024)
# Where two headings read alike, the source gives them in different places.
# Target: T1, CFTR (Homo sapiens, UniProt P13569, DEL508-508)
# T1 construct: endogenous in cells; host or cells: primary human bronchial epithelial cells from CF subjects (F508del/MF-HBE), differentiated at air-liquid interface
# Test: HBE assay: Ussing chamber assay of CFTR-mediated short-circuit currents
# Type: cell-based
# Conditions: for EC50: read-out: HBE EC50; for activation at 10 µM: read-out: HBE Activity at 10 μM (%)
# Method in brief: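 CFTR-mediated Isc (μA/cm²) equals the peak response to apical 20 μM forskolin minus the residual after a 20 μM each BPO/GlyH-101/CFTR inhibitor 172 cocktail, recorded in Ussing chambers at Vhold 0 mV, 37 °C, pH 7.4, with 30 μM apical amiloride. Cells were F508del/MF HBE cultures preincubated 18-24 h with corrector (concentration range or 10 μM) plus 1 μM ivacaftor in 20% human serum.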
# [1] = Table 10, read-out: HBE Max activity (%)
# [2] = Table 12, read-out: HBE Max Activity (%)
# [3] = Table 13, read-out: HBE Max Activity (%)
# T1 sequence (P13569 with tags, fused parts or gaps DEL508-508): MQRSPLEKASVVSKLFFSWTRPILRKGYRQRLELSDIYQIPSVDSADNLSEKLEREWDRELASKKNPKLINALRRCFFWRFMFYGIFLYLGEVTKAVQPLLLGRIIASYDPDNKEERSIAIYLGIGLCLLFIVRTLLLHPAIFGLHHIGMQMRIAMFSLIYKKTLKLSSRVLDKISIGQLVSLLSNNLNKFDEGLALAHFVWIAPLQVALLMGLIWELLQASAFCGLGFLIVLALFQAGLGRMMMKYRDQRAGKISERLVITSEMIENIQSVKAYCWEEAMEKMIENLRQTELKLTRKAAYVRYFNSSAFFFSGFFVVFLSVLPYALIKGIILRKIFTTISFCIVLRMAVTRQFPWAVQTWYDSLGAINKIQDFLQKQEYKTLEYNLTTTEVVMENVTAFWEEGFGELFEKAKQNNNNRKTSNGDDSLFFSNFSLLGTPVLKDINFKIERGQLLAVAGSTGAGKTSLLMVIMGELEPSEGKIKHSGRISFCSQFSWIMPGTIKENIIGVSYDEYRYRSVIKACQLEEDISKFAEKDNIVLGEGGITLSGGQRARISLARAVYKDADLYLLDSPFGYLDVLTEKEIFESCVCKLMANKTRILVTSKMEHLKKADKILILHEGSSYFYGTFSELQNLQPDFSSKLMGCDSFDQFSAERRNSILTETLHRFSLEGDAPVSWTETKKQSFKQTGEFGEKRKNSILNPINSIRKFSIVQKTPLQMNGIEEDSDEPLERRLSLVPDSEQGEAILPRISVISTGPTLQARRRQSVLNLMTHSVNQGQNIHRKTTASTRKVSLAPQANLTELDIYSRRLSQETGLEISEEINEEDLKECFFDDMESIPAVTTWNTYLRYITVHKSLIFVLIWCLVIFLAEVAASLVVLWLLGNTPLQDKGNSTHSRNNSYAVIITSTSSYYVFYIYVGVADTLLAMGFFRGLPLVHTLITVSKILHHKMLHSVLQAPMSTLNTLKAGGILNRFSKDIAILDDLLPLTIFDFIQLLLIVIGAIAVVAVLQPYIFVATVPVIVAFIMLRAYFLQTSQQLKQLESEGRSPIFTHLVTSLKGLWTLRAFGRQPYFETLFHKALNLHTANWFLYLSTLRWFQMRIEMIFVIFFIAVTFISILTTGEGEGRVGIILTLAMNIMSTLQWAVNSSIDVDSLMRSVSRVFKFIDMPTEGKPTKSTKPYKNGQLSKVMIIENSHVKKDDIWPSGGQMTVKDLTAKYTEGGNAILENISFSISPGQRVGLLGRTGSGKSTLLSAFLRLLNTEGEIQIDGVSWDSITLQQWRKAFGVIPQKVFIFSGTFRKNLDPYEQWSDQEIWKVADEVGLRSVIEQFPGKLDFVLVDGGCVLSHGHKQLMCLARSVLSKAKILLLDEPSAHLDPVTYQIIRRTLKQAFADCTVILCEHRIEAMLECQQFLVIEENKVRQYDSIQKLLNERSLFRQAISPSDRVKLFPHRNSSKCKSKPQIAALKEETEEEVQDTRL
smiles,measurement,setting,value
"Cc1cccc(C)c1-c1cc2nc(n1)NS(=O)(=O)c1cccc(c1)C(=O)N(Cc1ccc(-c3cncnc3)cc1)[C@H](CC(C)(C)C)CO2 [Compound 144, (11R)-6-(2,6-dimethylphenyl)-11-(2,2-dimethylpropyl)-2,2-dioxo-12-[(4-pyrimidin-5-ylphenyl)methyl]-9-oxa-2λ^6-thia-3,5,12,19-tetrazatricyclo[12.3.1.14,8]nonadeca-1(18),4(19),5,7,14,16-hexaen-13-one]",EC50,Table 10,< 1000 nM
same,Emax,[1],> 60%
"Cc1cccc(C)c1-c1cc2nc(n1)NS(=O)(=O)c1cccc(c1)C(=O)N(Cc1ccc(-c3cnc(O)nc3)cc1)[C@H](CC(C)(C)C)CO2 [Compound 145, (11R)-6-(2,6-dimethylphenyl)-11-(2,2-dimethylpropyl)-12-[[4-(2-hydroxypyrimidin-5-yl)phenyl]methyl]-2,2-dioxo-9-oxa-2λ^6-thia-3,5,12,19-tetrazatricyclo[12.3.1.14,8]nonadeca-1(18),4(19),5,7,14,16-hexaen-13-one]",EC50,Table 10,1000 to 3000 nM
same,Emax,[1],> 60%
"Cc1cccc(C)c1-c1cc2nc(n1)NS(=O)(=O)c1cccc(c1)C(=O)N(Cc1ccc(N3CC(=O)NC3=O)cc1)[C@H](CC(C)(C)C)CO2 [Compound 146, 1-[4-[[(11R)-6-(2,6-Dimethylphenyl)-11-(2,2-dimethylpropyl)-2,2,13-trioxo-9-oxa-2λ^6-thia-3,5,12,19-tetrazatricyclo[12.3.1.14,8]nonadeca-1(18),4(19),5,7,14,16-hexaen-12-yl]methyl]phenyl]imidazolidine-2,4-dione]",EC50,Table 10,1000 to 3000 nM
same,Emax,[1],> 60%
"Cc1cccc(C)c1-c1cc2nc(n1)NS(=O)(=O)c1cccc(c1)C(=O)N(Cc1ccccc1-c1cn[nH]c1)[C@H](CC(C)(C)C)CO2 [Compound 147, (11R)-6-(2,6-dimethylphenyl)-11-(2,2-dimethylpropyl)-12-{[2-(1H-pyrazol-4-yl)phenyl]methyl}-9-oxa-2λ^6-thia-3,5,12,19-tetraazatricyclo[12.3.1.14,8]nonadeca-1(17),4,6,8(19),14(18),15-hexaene-2,2,13-trione]",EC50,Table 10,< 1000 nM
same,Emax,[1],> 60%
"Cc1cccc(C)c1-c1cc2nc(n1)NS(=O)(=O)c1cccc(c1)C(=O)N(Cc1cccc(N3CC(=O)NC3=O)c1)[C@H](CC(C)(C)C)CO2 [Compound 148, 1-[3-[[(11R)-6-(2,6-Dimethylphenyl)-11-(2,2-dimethylpropyl)-2,2,13-trioxo-9-oxa-2λ^6-thia-3,5,12,19-tetrazatricyclo[12.3.1.14,8]nonadeca-1(18),4(19),5,7,14,16-hexaen-12-yl]methyl]phenyl]imidazolidine-2,4-dione]",EC50,Table 10,1000 to 3000 nM
same,Emax,[1],> 60%
"Cc1cccc(C)c1-c1cc2nc(n1)NS(=O)(=O)c1cccc(c1)C(=O)N(Cc1ncc(N3CC4(CCC4)C3)cn1)[C@H](CC(C)(C)C)CO2 [Compound 155, (11R)-12-[[5-(2-Azaspiro[3.3]heptan-2-yl)pyrimidin-2-yl]methyl]-6-(2,6-dimethylphenyl)-11-(2,2-dimethylpropyl)-2,2-dioxo-9-oxa-2λ^6-thia-3,5,12,19-tetrazatricyclo[12.3.1.14,8]nonadeca-1(18),4(19),5,7,14,16-hexaen-13-one]",EC50,Table 12,< 1000 nM
same,Emax,[2],> 60%
"Cc1cccc(C)c1-c1cc2nc(n1)NS(=O)(=O)c1cccc(c1)C(=O)N(Cc1ccc(C3CC(C)(C)CO3)cn1)[C@H](CC(C)(C)C)CO2 (stereo partly drawn) [Compound 156, (11R)-6-(2,6-Dimethylphenyl)-11-(2,2-dimethylpropyl)-12-[[5-(4,4-dimethyltetrahydrofuran-2-yl)-2-pyridyl]methyl]-2,2-dioxo-9-oxa-2λ6-thia-3,5,12,19-tetrazatricyclo[12.3.1.14,8]nonadeca-1(18),4(19),5,7,14,16-hexaen-13-one]",EC50,Table 12,< 1000 nM
same,Emax,[2],> 60%
"Cc1cccc(C)c1-c1cc2nc(n1)NS(=O)(=O)c1cccc(c1)C(=O)N(Cc1ccc(C3CC4(C3)CC(C)(C)C4)cn1)[C@H](CC(C)(C)C)CO2 [Compound 157, (11R)-6-(2,6-Dimethylphenyl)-11-(2,2-dimethylpropyl)-12-[[5-(2,2-dimethylspiro[3.3]heptan-6-yl)-2-pyridyl]methyl]-2,2-dioxo-9-oxa-2λ6-thia-3,5,12,19-tetrazatricyclo[12.3.1.14,8]nonadeca-1(18),4(19),5,7,14,16-hexaen-13-one]",EC50,Table 13,< 1000 nM
same,Emax,[3],> 60%
Cc1cccc(C)c1-c1cc2nc(n1)NS(=O)(=O)c1cccc(c1)C(=O)N(Cc1ncc(C3CC(C)(C)C3)cn1)[C@H](CC(C)(C)C)CO2 [Compound 158],EC50,Table 13,< 1000 nM
same,Emax,[3],> 60%
Cc1cccc(C)c1-c1cc2nc(n1)NS(=O)(=O)c1cccc(c1)C(=O)N(Cc1ccc(C3CC(C)(C)C3)cn1)[C@H](CC(C)(C)C)CO2 [Compound 159],EC50,Table 13,< 1000 nM
same,Emax,[3],> 60%
Cc1cccc(C)c1-c1cc2nc(n1)NS(=O)(=O)c1cccc(c1)C(=O)N(Cc1ncc(C3CC4(CCC4)C3)cn1)[C@H](CC(C)(C)C)CO2 [Compound 160],EC50,Table 13,< 1000 nM
same,Emax,[3],> 60%
Cc1cccc(C)c1-c1cc2nc(n1)NS(=O)(=O)c1cccc(c1)C(=O)N(Cc1ncc(C3CC4(COC4)C3)cn1)[C@H](CC(C)(C)C)CO2 [Compound 161],EC50,Table 13,< 1000 nM
same,Emax,[3],> 60%
Cc1cccc(C)c1-c1cc2nc(n1)NS(=O)(=O)c1cccc(c1)C(=O)N(Cc1ncc(C3CC4(C3)CC(C)(C)C4)cn1)[C@H](CC(C)(C)C)CO2 [Compound 162],EC50,Table 13,< 1000 nM
same,Emax,[3],> 60%
Cc1cccc(C)c1-c1cc2nc(n1)NS(=O)(=O)c1cccc(c1)C(=O)N(Cc1ccc(C3CC4(CCC4)C3)cn1)[C@H](CC(C)(C)C)CO2 [Compound 163],EC50,Table 13,1000 to 3000 nM
same,Emax,[3],> 60%
Cc1cccc(C)c1-c1cc2nc(n1)NS(=O)(=O)c1cccc(c1)C(=O)N(Cc1ccc(C3CC4(COC4)C3)cn1)[C@H](CC(C)(C)C)CO2 [Compound 164],EC50,Table 13,< 1000 nM
same,Emax,[3],> 60%
Cc1cccc(C)c1-c1cc2nc(n1)NS(=O)(=O)c1cccc(c1)C(=O)N(CC(=O)N1CCC3(CCC3)C1)[C@H](CC(C)(C)C)CO2 [Compound 165],activation at 10 µM,Table 13,> 600%
Cc1cccc(C)c1-c1cc2nc(n1)NS(=O)(=O)c1cccc(c1)C(=O)N(CC(=O)NCCN1CCOCC1)[C@H](CC(C)(C)C)CO2 [Compound 166],activation at 10 µM,Table 12,> 600%
Cc1cccc(C)c1-c1cc2nc(n1)NS(=O)(=O)c1cccc(c1)C(=O)N(Cc1nc(C(C)(C)C)co1)[C@H](CC(C)(C)C)CO2 [Compound 167],activation at 10 µM,Table 12,> 600%
Cc1cccc(C)c1-c1cc2nc(n1)NS(=O)(=O)c1cccc(c1)C(=O)N(CC(=O)N1Cc3ccccc3C1)[C@H](CC(C)(C)C)CO2 [Compound 168],activation at 10 µM,Table 13,> 600%
Cc1cccc(C)c1-c1cc2nc(n1)NS(=O)(=O)c1cccc(c1)C(=O)N(CC(=O)N1CCCC3(CCC3)C1)[C@H](CC(C)(C)C)CO2 [Compound 169],activation at 10 µM,Table 13,> 600%
Cc1cccc(C)c1-c1cc2nc(n1)NS(=O)(=O)c1cccc(c1)C(=O)N(CC(=O)N1CC3(CCC3)C1)[C@H](CC(C)(C)C)CO2 [Compound 170],activation at 10 µM,Table 13,30 to 60%
Cc1cccc(C)c1-c1cc2nc(n1)NS(=O)(=O)c1cccc(c1)C(=O)N(CC(=O)NC1CC3(CCC3)C1)[C@H](CC(C)(C)C)CO2 [Compound 171],activation at 10 µM,Table 13,> 600%
Cc1cccc(C)c1-c1cc2nc(n1)NS(=O)(=O)c1cccc(c1)C(=O)N(CC(=O)N(C)C1CCC(C)(C)CC1)[C@H](CC(C)(C)C)CO2 [Compound 172],activation at 10 µM,Table 13,> 600%
Cc1cccc(C)c1-c1cc2nc(n1)NS(=O)(=O)c1cccc(c1)C(=O)N(CC(=O)NC1CCC13CCC3)[C@H](CC(C)(C)C)CO2 (stereo partly shown) [Compound 173],activation at 10 µM,Table 13,> 600%
Cc1cccc(C)c1-c1cc2nc(n1)NS(=O)(=O)c1cccc(c1)C(=O)N(Cc1ncc(C(C)(C)C)s1)[C@H](CC(C)(C)C)CO2 [Compound 174],activation at 10 µM,Table 12,> 600%
Cc1cccc(C)c1-c1cc2nc(n1)NS(=O)(=O)c1cccc(c1)C(=O)N(CC(=O)NC1CCCC(C)(C)C1)[C@H](CC(C)(C)C)CO2 (stereo partly shown) [Compound 175],activation at 10 µM,Table 13,> 600%
Cc1cccc(C)c1-c1cc2nc(n1)NS(=O)(=O)c1cccc(c1)C(=O)N(CC(=O)N1CCCCC1c1ccccc1F)[C@H](CC(C)(C)C)CO2 (stereo partly shown) [Compound 176],activation at 10 µM,Table 13,> 600%
Cc1cccc(C)c1-c1cc2nc(n1)NS(=O)(=O)c1cccc(c1)C(=O)N(CC(=O)N1CCCCC1c1ccc(F)cc1)[C@H](CC(C)(C)C)CO2 (stereo partly shown) [Compound 177],activation at 10 µM,Table 13,> 600%
Cc1cccc(C)c1-c1cc2nc(n1)NS(=O)(=O)c1cccc(c1)C(=O)N(CC(=O)NC1CCCCC1(C)C)[C@H](CC(C)(C)C)CO2 (stereo partly shown) [Compound 178],activation at 10 µM,Table 13,> 600%
Cc1cccc(C)c1-c1cc2nc(n1)NS(=O)(=O)c1cccc(c1)C(=O)N(CC(=O)NC1CCC(C)(C)CC1)[C@H](CC(C)(C)C)CO2 [Compound 179],activation at 10 µM,Table 13,> 600%
Cc1cccc(C)c1-c1cc2nc(n1)NS(=O)(=O)c1cccc(c1)C(=O)N(CC(=O)N1CCC[C@@H](c3ccccc3)C1)[C@H](CC(C)(C)C)CO2 [Compound 180],activation at 10 µM,Table 13,> 600%
Cc1cccc(C)c1-c1cc2nc(n1)NS(=O)(=O)c1cccc(c1)C(=O)N(CC(=O)N1C[C@H](C)C[C@H](C)C1)[C@H](CC(C)(C)C)CO2 [Compound 181],activation at 10 µM,Table 13,> 600%
Cc1cccc(C)c1-c1cc2nc(n1)NS(=O)(=O)c1cccc(c1)C(=O)N(CC(=O)N(C)C1CCOCC1)[C@H](CC(C)(C)C)CO2 [Compound 182],activation at 10 µM,Table 13,> 600%
Cc1cccc(C)c1-c1cc2nc(n1)NS(=O)(=O)c1cccc(c1)C(=O)N(CC(=O)N1CCC3(CCCC3)CC1)[C@H](CC(C)(C)C)CO2 [Compound 183],activation at 10 µM,Table 13,> 600%
